The subject of the assay is C57BL/6 mice. Briefly: animal or person. The following applies: Mus musculus, sc, 0.5 h, s.c. administration, 30 min, 55° C. water, read-out: ED50 (mg/kg) at 30 min on C57BL/6 mice in Warm-water Tail-flick Test. Type of assay: in vivo. A general note: Thermal pain tests record how soon the animal reacts.
`CC(=O)Nc1ccc(CN2CCC(CCc3ccsc3)(C3CCCO3)CC2)cc1` (centres unmarked) [Compound 186, N-(4-((4-(tetrahydrofuran-2-yl)-4-(2-(thiophen-3-yl)ethyl)piperidin-1-yl)methyl)phenyl)acetamide]: the ED50 is more than 10 mg/kg.

Consider `CCOCC1(CCc2ccccc2)CCN(Cc2ccc(-c3nnc(N)o3)cc2)CC1` [Compound 187, 5-(4-((4-(ethoxymethyl)-4-phenethylpiperidin-1-yl)methyl)phenyl)-1,3,4-oxadiazol-2-amine], for which the ED50 is more than 10 mg/kg.

Turning to `CCOCC1(CCc2ccccc2)CCN(Cc2ccc(-c3nnc(OCC)[nH]3)cc2)CC1` [Compound 188, 1-(4-(5-ethoxy-4H-1,2,4-triazol-3-yl)benzyl)-4-(ethoxymethyl)-4-phenethylpiperidine], the ED50 is more than 10 mg/kg.

For the compound `CC(=O)Nc1ccc(CN2CCC(CCc3ccccc3)(c3ccco3)C2)cc1` (centres unmarked) [Compound 189, N-(4-((3-(furan-2-yl)-3-phenethylpyrrolidin-1-yl)methyl)phenyl)acetamide], the ED50 was more than 10 mg/kg.

Take `CC(=O)Nc1ccc(CN2CCC(CCc3ccsc3)(c3ccccn3)C2)cc1` (centres unmarked) [Compound 190, N-(4-((3-(pyridin-2-yl)-3-(2-(thiophen-3-yl)ethyl)pyrrolidin-1-yl)methyl)phenyl)acetamide]: the ED50 was more than 10 mg/kg.

For `CC(=O)Nc1ccc(CN2CCC(CCc3ccsc3)(C3CCO3)C2)cc1` (centres unmarked) [Compound 191], the ED50 is less than 10 mg/kg.

For the compound `CCn1nnn(CCN2CCC(CCc3ccccc3)(C3CCCO3)C2)c1=O` (centres unmarked) [Compound 192, 1-ethyl-4-(2-(3-phenethyl-3-(tetrahydrofuran-2-yl)pyrrolidin-1-yl)ethyl)-1H-tetrazol-5(4H)-one], the ED50 was more than 10 mg/kg.

Consider `c1ccc(CCC2(C3CCCO3)CCN(Cc3cccn3-c3cccnc3)C2)cc1` (centres unmarked) [Compound 193, 3-(2-((3-phenethyl-3-(tetrahydrofuran-2-yl)pyrrolidin-1-yl)methyl)-1H-pyrrol-1-yl)pyridine], for which the ED50 is more than 10 mg/kg.

In the case of `c1ccc(CCC2(C3CCCO3)CCN(Cc3ccccc3-c3cccs3)C2)cc1` (centres unmarked) [Compound 194, 3-phenethyl-3-(tetrahydrofuran-2-yl)-1-(2-(thiophen-2-yl)benzyl)pyrrolidine], the ED50 is more than 10 mg/kg.

As to `c1ccc(CCC2(C3CCCO3)CCN(Cc3ccccc3-c3ccco3)C2)cc1` (centres unmarked) [Compound 195, 1-(2-(furan-2-yl)benzyl)-3-phenethyl-3-(tetrahydrofuran-2-yl)pyrrolidine], the ED50 is more than 10 mg/kg.

On to `Clc1ccccc1CN1CCC(CCc2ccccc2)(C2CCCO2)C1` (centres unmarked) [Compound 196, 1-(2-chlorobenzyl)-3-phenethyl-3-(tetrahydrofuran-2-yl)pyrrolidine], for which the ED50 is more than 10 mg/kg.

As for `Cc1nc(CN2CCC(CCc3ccccc3)(C3CCCO3)C2)cs1` (centres unmarked) [Compound 197, 2-methyl-4-((3-phenethyl-3-(tetrahydrofuran-2-yl)pyrrolidin-1-yl)methyl)thiazole], the ED50 is more than 10 mg/kg.

As for `Cn1cc(CN2CCC(CCc3ccccc3)(C3CCCO3)C2)cn1` (centres unmarked) [Compound 198, 1-methyl-4-((3-phenethyl-3-(tetrahydrofuran-2-yl)pyrrolidin-1-yl)methyl)-1H-pyrazole], the ED50 is less than 10 mg/kg.

As to `Fc1ccc(-n2cccn2)c(CN2CCC(CCc3ccccc3)(C3CCCO3)C2)c1` (centres unmarked) [Compound 199, 1-(4-fluoro-2-((3-phenethyl-3-(tetrahydrofuran-2-yl)pyrrolidin-1-yl)methyl)phenyl)-1H-pyrazole], the ED50 was more than 10 mg/kg.

With `CC(=O)Nc1ccc(CN2CCC(CCc3ccccc3)(C3(C)CCCO3)C2)cc1` (centres unmarked) [Compound 200, N-(4-((3-(2-methyltetrahydro-furan-2-yl)-3-phenethylpyrrolidin-1-yl)methyl)phenyl)acetamide], the ED50 was less than 10 mg/kg.

On to `CC(=O)Nc1ccc(CN2CCC(CCc3ccccc3)(C3OCC3(C)C)C2)cc1` (centres unmarked) [Compound 201, N-(4-((3-(3,3-dimethyloxetan-2-yl)-3-phenethylpyrrolidin-1-yl)methyl)phenyl)acetamide], for which the ED50 was less than 10 mg/kg.

On to `CC(=O)Nc1ccc(CN2CCC(CCc3ccccc3)(C3C=C(C)CO3)C2)cc1` (centres unmarked) [Compound 202, N-(4-((3-(4-methyl-2,5-dihydrofuran-2-yl)-3-phenethylpyrrolidin-1-yl)methyl)phenyl)acetamide], for which the ED50 was less than 10 mg/kg.

As for `CC(=O)Nc1ccc(CN2CCC(CCc3ccccc3)(c3cc(C)co3)C2)cc1` (centres unmarked) [Compound 203, N-(4-((3-(4-methylfuran-2-yl)-3-phenethylpyrrolidin-1-yl)methyl)phenyl)acetamide], the ED50 is more than 10 mg/kg.

Regarding `CCOC[C@@]1(CCc2ccccc2)CCN(Cc2ccc(NC(C)=O)cc2)C1` [Compound 204, (S)-N-(4-((3-(ethoxymethyl)-3-phenethylpyrrolidin-1-yl)methyl)phenyl)acetamide], the ED50 was more than 10 mg/kg.

As to `CCOC[C@]1(CCc2ccccc2)CCN(Cc2ccc(NC(C)=O)cc2)C1` [Compound 205, (R)-N-(4-((3-(ethoxymethyl)-3-phenethylpyrrolidin-1-yl)methyl)phenyl)acetamide], the ED50 was less than 10 mg/kg.

Take `CCOCC1(CCc2ccccc2)CCN(Cc2ccc(Nc3cnccn3)cc2)C1` (centres unmarked) [Compound 206, N-(4-((3-(ethoxymethyl)-3-phenethylpyrrolidin-1-yl)methyl)phenyl)pyrazin-2-amine]: the ED50 is more than 10 mg/kg.

Consider `CCOCC1(CCc2ccccc2)CCN(Cc2ccc(Nc3ncccn3)cc2)C1` (centres unmarked) [Compound 207, N-(4-((3-(ethoxymethyl)-3-phenethylpyrrolidin-1-yl)methyl)phenyl)pyri-midin-2-amine], for which the ED50 was more than 10 mg/kg.

As to `CC(=O)Nc1ccc(CN2CCC(CCc3ccccc3)(C3CCCCO3)C2)cc1` (centres unmarked) [Compound 208, N-(4-((3-phenethyl-3-(tetrahydro-2H-pyran-2-yl)pyrrolidin-1-yl)methyl)phenyl)acetamide], the ED50 was less than 10 mg/kg.

For the compound `c1ccc(CCC2(C3CCCCO3)CCN(Cc3ccccc3-c3cccs3)C2)cc1` (centres unmarked) [Compound 209, 3-phenethyl-3-(tetrahydro-2H-pyran-2-yl)-1-(2-(thiophen-2-yl)benzyl)pyrrolidine], the ED50 was more than 10 mg/kg.

For `Clc1ccccc1CN1CCC(CCc2ccccc2)(C2CCCCO2)C1` (centres unmarked) [Compound 210, 1-(2-chlorobenzyl)-3-phenethyl-3-(tetrahydro-2H-pyran-2-yl)pyrrolidine], the ED50 is more than 10 mg/kg.

For `Cc1nc(CN2CCC(CCc3ccccc3)(C3CCCCO3)C2)cs1` (centres unmarked) [Compound 211, 2-methyl-4-((3-phenethyl-3-(tetrahydro-2H-pyran-2-yl)pyrrolidin-1-yl)methyl)thiazole], the ED50 is more than 10 mg/kg.

Regarding `c1ccc(CCC2(C3CCCO3)CCN(Cc3cn[nH]c3)C2)cc1` (centres unmarked) [Compound 212, 4-((3-phenethyl-3-(tetrahydrofuran-2-yl)pyrrolidin-1-yl)methyl)-1H-pyrazole], the ED50 is more than 10 mg/kg.

With `Cn1ccc(CN2CCC(CCc3ccccc3)(C3CCCO3)C2)n1` (centres unmarked) [Compound 214, 1-methyl-3-((3-phenethyl-3-(tetrahydrofuran-2-yl)pyrrolidin-1-yl)methyl)-1H-pyrazole], the ED50 was more than 10 mg/kg.

For `Cn1nccc1CN1CCC(CCc2ccccc2)(C2CCCO2)C1` (stereo not drawn) [Compound 215, l-methyl-5-((3-phenethyl-3-(tetrahydrofuran-2-yl)pyrrolidin-1-yl)methyl)-1H-pyrazole], the ED50 was less than 10 mg/kg.

Take `CC(=O)Nc1ccc(CN2CCC(CCc3ccccc3)(C3OCC=C3C)C2)cc1` (centres unmarked) [Compound 216, N-(4-((3-(3-methyl-2,5-dihydrofuran-2-yl)-3-phenethylpyrrolidin-1-yl)methyl)phenyl)acetamide]: the ED50 was less than 10 mg/kg.

Take `CCOCC1(CCc2ccccc2)CCN(Cc2cnn(C)c2)C1` (centres unmarked) [Compound 217, 4-((3-(ethoxymethyl)-3-phenethylpyrrolidin-1-yl)methyl)-1-methyl-1H-pyrazole]: the ED50 was less than 10 mg/kg.

For `c1ccc(CCC2(C3CCCO3)CCN(Cc3cccc(-c4ccco4)c3)C2)cc1` (centres unmarked) [Compound 219], the ED50 was more than 10 mg/kg.

As for `c1ccc(CCC2(C3CCCO3)CCN(Cc3ccc(-c4ccco4)cc3)C2)cc1` (centres unmarked) [Compound 220], the ED50 was more than 10 mg/kg.

For `Cn1cncc1CN1CCC(CCc2ccccc2)(C2CCCO2)C1` (centres unmarked) [Compound 221, 1-methyl-5-((3-phenethyl-3-(tetrahydrofuran-2-yl)pyrrolidin-1-yl)methyl)-1H-imidazole], the ED50 is more than 10 mg/kg.

For `Cn1ccnc1CN1CCC(CCc2ccccc2)(C2CCCO2)C1` (stereo not drawn) [Compound 222, l-methyl-2-((3-phenethyl-3-(tetrahydrofuran-2-yl)pyrrolidin-1-yl)methyl)-1H-imidazole], the ED50 is more than 10 mg/kg.

`COc1ccsc1CN1CCC(CCc2ccccc2)(C2CCCO2)C1` (centres unmarked) [Compound 223, 1-((3-methoxythiophen-2-yl)methyl)-3-phenethyl-3-(tetrahydrofuran-2-yl)pyrrolidine]: the ED50 is more than 10 mg/kg.

In the case of `Cn1ccc(CN2CCC(CCc3ccccc3)(C3CCCO3)C2)c1` (centres unmarked) [Compound 224, 1-methyl-3-((3-phenethyl-3-(tetrahydrofuran-2-yl)pyrrolidin-1-yl)methyl)-1H-pyrrole], the ED50 is more than 10 mg/kg.

`c1ccc(CCC2(C3CCCO3)CCN(Cc3ccccn3)C2)cc1` (centres unmarked) [Compound 225, 2-((3-phenethyl-3-(tetrahydrofuran-2-yl)pyrrolidin-1-yl)methyl)pyridine]: the ED50 is more than 10 mg/kg.

On to `c1ccc(CCC2(C3CCCO3)CCN(Cc3cccnc3)C2)cc1` (centres unmarked) [Compound 226, 3-((3-phenethyl-3-(tetrahydrofuran-2-yl)pyrrolidin-1-yl)methyl)pyridine], for which the ED50 is less than 10 mg/kg.

With `Cn1cccc1CN1CCC(CCc2ccccc2)(C2CCCO2)C1` (centres unmarked) [Compound 227, 1-methyl-2-((3-phenethyl-3-(tetrahydrofuran-2-yl)pyrrolidin-1-yl)methyl)-1H-pyrrole], the ED50 is more than 10 mg/kg.

Take `c1ccc(CCC2(C3CCCO3)CCN(Cc3ccnn3-c3ccccc3)C2)cc1` (centres unmarked) [Compound 228, 5-((3-phenethyl-3-(tetrahydrofuran-2-yl)pyrrolidin-1-yl)methyl)-1-phenyl-1H-pyrazole]: the ED50 is more than 10 mg/kg.

The values are drawn from patent publication US11584765B2 (priority 2017, dated 2023).
